Source: patent publication US20190159455A1 (priority 2016, published 2019)
Read-outs that look alike come from different tables or passages of the source.

Tested on: Phytophthora infestans(Phytin)
Format: cell-based
Settings: 7 days after inoculation

**Q.** Which Observed efficacy (4 ppm) does the source give for c1ccc(-c2noc(-c3cccs3)n2)cc1 [Tioxazafen, tioxazafen] here?
**A.** 7

**Q.** O=C(NCCc1ncc(C(F)(F)F)cc1Cl)c1ccccc1C(F)(F)F [Fluopyram, fluopyram] was tested. Which Observed efficacy (1 ppm) did it give?
**A.** 10
